Data: patent publication US20250346585A1 (Alexion Pharmaceuticals, Inc., priority 2022, published 2025)
Where two headings read alike, the source gives them in different places.

Target: Human complement C1s enzyme (Homo sapiens (Human), UniProt P09871)
Assay: Human C1s enzyme assay
Type: biochemical
Settings: read-out: IC50 (Stars)
Procedure, shortened: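 Purified serum-derived human C1s (1.16 nM final) preincubated 5 min at room temperature with compound in 50 mM Tris, 1 M NaCl, pH 7.5. Z-L-Lys-SBzl thioester substrate and DTNB added (100 μM each, final); A405 read every 30 s for 30 min. IC50 from nonlinear regression of reaction rates against compound concentration.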

[1] = Human complement C1s enzyme 1.16 nM, substrate Z-L-Lys-SBzl 100 μM, assay of Example 3
[2] = Human C1s enzyme assay of Example 3

Chain of Human complement C1s enzyme (P09871 438-688 limits assumed): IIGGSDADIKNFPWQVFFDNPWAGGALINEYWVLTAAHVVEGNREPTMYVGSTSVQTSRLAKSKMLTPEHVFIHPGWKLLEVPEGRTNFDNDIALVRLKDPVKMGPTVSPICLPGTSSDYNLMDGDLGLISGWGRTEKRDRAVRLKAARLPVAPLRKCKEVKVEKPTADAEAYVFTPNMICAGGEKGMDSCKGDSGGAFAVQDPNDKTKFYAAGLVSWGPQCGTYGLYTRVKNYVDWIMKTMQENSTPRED
Chain of Human complement C1s enzyme (P09871 16-437 partner limits assumed): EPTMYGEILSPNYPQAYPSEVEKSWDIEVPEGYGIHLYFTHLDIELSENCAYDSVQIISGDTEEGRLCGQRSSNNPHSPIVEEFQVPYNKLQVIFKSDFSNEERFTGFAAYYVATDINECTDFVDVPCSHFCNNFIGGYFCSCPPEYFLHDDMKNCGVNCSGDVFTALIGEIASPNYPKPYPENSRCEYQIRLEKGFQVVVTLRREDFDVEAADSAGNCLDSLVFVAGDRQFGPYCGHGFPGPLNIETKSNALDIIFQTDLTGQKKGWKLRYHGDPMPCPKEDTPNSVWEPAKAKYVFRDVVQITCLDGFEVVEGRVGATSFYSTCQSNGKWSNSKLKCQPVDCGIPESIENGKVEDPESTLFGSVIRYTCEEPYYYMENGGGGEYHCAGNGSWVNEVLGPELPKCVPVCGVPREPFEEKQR

| SMILES | IC50 [1] | IC50 [2] | other results |
| --- | --- | --- | --- |
| N=C(N)c1csc(CNC(=O)[C@@H]2CC3(CN2C(=O)CNC(=O)c2ccc(-c4ccncc4F)cc2)OCCO3)c1 [Compound 266, (S)—N-((4-carbamimidoylthiophen-2-yl)methyl)-7-((4-(3-fluoropyridin-4-yl)benzoyl)glycyl)-1,4-dioxa-7-azaspiro[4.4]nonane-8-carboxamide] | < 100 nM |  |  |
| C[C@@H](NC(=O)[C@@H]1CC2(CN1C(=O)CNC(=O)c1ccc3c(c1)-c1ccccc1-3)OCCO2)c1cc(C(=N)N)cs1 [Compound 95, (S)-7-((biphenylene-2-carbonyl)glycyl)-N—((R)-1-(4-carbamimidoylthiophen-2-yl)ethyl)-1,4-dioxa-7-azaspiro[4.4]nonane-8-carboxamide] |  | < 100 nM |  |
| N=C(N)c1csc(CNC(=O)[C@@H]2CC3(CN2C(=O)CNC(=O)c2ccc(-c4ccccc4)cc2F)OCCO3)c1 [Compound 83, (S)—N-((4-carbamimidoylthiophen-2-yl)methyl)-7-((3-fluoro-[1,1′-biphenyl]-4-carbonyl)glycyl)-1,4-dioxa-7-azaspiro[4.4]nonane-8-carboxamide] |  | < 100 nM |  |
| C[C@@]12C[C@@H]1N(C(=O)CNC(=O)c1ccc(Oc3ccccc3)cc1)[C@H](C(=O)NCc1cccc(Cl)c1Cl)C2 [Compound 387, (1S,3S,5S)—N-(2,3-dichlorobenzyl)-5-methyl-2-((4-phenoxybenzoyl)glycyl)-2-azabicyclo[3.1.0]hexane-3-carboxamide] | > 1000 nM |  |  |
| C[C@@H](NC(=O)[C@@H]1C[C@]2(CN)C[C@@H]2N1C(=O)CNC(=O)c1ccc2c(c1)-c1ccccc1C2(F)F)c1cc(C(=N)N)cs1 [Compound 303, (1S,3S,5S)-5-(aminomethyl)-N—((R)-1-(4-carbamimidoylthiophen-2-yl)ethyl)-2-((9,9-difluoro-9H-fluorene-3-carbonyl)glycyl)-2-azabicyclo[3.1.0]hexane-3-carboxamide] | < 100 nM |  |  |
| CC(C)c1ccc(Oc2ccc(C(=O)NCC(=O)N3C[C@H](OC(F)F)C[C@H]3C(=O)N[C@H](C)c3cc(C(=N)N)cs3)cc2)cc1 [Compound 47, (2S,4R)—N—((R)-1-(4-carbamimidoylthiophen-2-yl)ethyl)-4-(difluoromethoxy)-1-((4-(4-isopropylphenoxy)benzoyl)glycyl)pyrrolidine-2-carboxamide] |  | < 100 nM |  |
| COC1c2ccccc2-c2cc(C(=O)NCC(=O)N3CC4(C[C@H]3C(=O)N[C@H](C)c3cc(C(=N)N)cs3)OCCO4)ccc21 (stereo partly drawn) [Compound 277, (8S)—N—((R)-1-(4-carbamimidoylthiophen-2-yl)ethyl)-7-((9-methoxy-9H-fluorene-3-carbonyl)glycyl)-1,4-dioxa-7-azaspiro[4.4]nonane-8-carboxamide] | < 100 nM |  |  |
| CC(NC(=O)[C@@H]1CC2(CN1C(=O)CNC(=O)c1ccc(-c3ccc(Cl)cn3)cc1)OCCO2)c1cc(C(=N)N)cs1 (stereo in doubt) [Compound 151, (S)—N—((S)-1-(4-carbamimidoylthiophen-2-yl)ethyl)-7-((4-(5-chloropyridin-2-yl)benzoyl)glycyl)-1,4-dioxa-7-azaspiro[4.4]nonane-8-carboxamide] |  | < 100 nM |  |
| C[C@@H](NC(=O)[C@@H]1CC2(CN1C(=O)CNC(=O)c1ccc3c(c1)Sc1ccccc1O3)OCCO2)c1cc(C(=N)N)cs1 [Compound 312, (S)—N—((R)-1-(4-carbamimidoylthiophen-2-yl)ethyl)-7-((phenoxathiine-2-carbonyl)glycyl)-1,4-dioxa-7-azaspiro[4.4]nonane-8-carboxamide] | < 100 nM |  |  |
| N=C(N)c1csc(CNC(=O)[C@@H]2CC3(CN2C(=O)CNC(=O)c2ccc(-c4cc5ccccc5s4)cc2)OCCO3)c1 [Compound 145] |  | < 100 nM |  |
| Cc1cc(C(=O)NCC(=O)N2CC3(C[C@H]2C(=O)N[C@H](C)c2cc(C(=N)N)cs2)OCCO3)cc2c1C(F)(F)c1ccccc1-2 [Compound 179, (S)—N—((R)-1-(4-carbamimidoylthiophen-2-yl)ethyl)-7-((9,9-difluoro-1-methyl-9H-fluorene-3-carbonyl)glycyl)-1,4-dioxa-7-azaspiro[4.4]nonane-8-carboxamide] |  | < 100 nM |  |
| COC[C@H]1C[C@@H](C(=O)N[C@H](C)c2cc(C(=N)N)cs2)N(C(=O)CNC(=O)c2ccc(Oc3ccc(F)cc3)cc2)C1 (relative stereo) [Compound 80, (2S,4S*)—N—((R)-1-(4-carbamimidoylthiophen-2-yl)ethyl)-1-((4-(4-fluorophenoxy)benzoyl)glycyl)-4-(methoxymethyl)pyrrolidine-2-carboxamide] |  | < 100 nM |  |
| C[C@H](NC(=O)c1ccc(-c2ccccc2)cc1)C(=O)N1CC2(C[C@H]1C(=O)NCc1cc(C(=N)N)cs1)OCCO2 [Compound 300, (S)-7-(([1,1′-biphenyl]-4-carbonyl)-L-alanyl)-N-((4-carbamimidoylthiophen-2-yl)methyl)-1,4-dioxa-7-azaspiro[4.4]nonane-8-carboxamide] | < 100 nM |  |  |
| COC[C@@]1(F)C[C@@H](C(=O)N[C@H](C)c2cc(C(=N)N)cs2)N(C(=O)CNC(=O)c2ccc3c(c2)C(C)c2ccccc2-3)C1 (stereo partly drawn) [Compound 363, (2S,4R)—N—((R)-1-(4-carbamimidoylthiophen-2-yl)ethyl)-4-fluoro-4-(methoxymethyl)-1-((9-methyl-9H-fluorene-2-carbonyl)glycyl)pyrrolidine-2-carboxamide] | < 100 nM |  |  |
| N=C(N)c1csc(CNC(=O)[C@@H]2CC3(CN2C(=O)CNC(=O)c2ccc(-c4ccc(F)cc4)cc2)OCCO3)c1 [Compound 73, (S)—N-((4-carbamimidoylthiophen-2-yl)methyl)-7-((4′-fluoro-[1,1′-biphenyl]-4-carbonyl)glycyl)-1,4-dioxa-7-azaspiro[4.4]nonane-8-carboxamide] |  | < 100 nM |  |
| NC(=O)CCNc1csc(CNC(=O)[C@@H]2CC3(CN2C(=O)CNC(=O)c2ccc(Oc4ccc(F)cc4)cc2)OCCO3)c1 [Compound 310, (S)-N-((4-((3-amino-3-oxopropyl)amino)thiophen-2-yl)methyl)-7-((4-(4-fluorophenoxy)benzoyl)glycyl)-1,4-dioxa-7-azaspiro[4.4]nonane-8-carboxamide] | > 1000 nM |  |  |
| C[C@@H](NC(=O)[C@@H]1CC2(CN1C(=O)CNC(=O)c1ccc3c(c1)-c1ccccc1C3(F)F)OCCO2)c1ccc(C(=N)N)s1 [Compound 56] |  | < 100 nM |  |
| C[C@@H](NC(=O)[C@@H]1C[C@]2(COCCCCN(C)C)C[C@@H]2N1C(=O)CNC(=O)c1ccc2c(c1)-c1ccccc1C2(F)F)c1cc(C(=N)N)cs1 [Compound 415, (1S,3S,5R)—N—((R)-1-(4-carbamimidoylthiophen-2-yl)ethyl)-2-((9,9-difluoro-9H-fluorene-3-carbonyl)glycyl)-5-((4-(dimethylamino)butoxy)methyl)-2-azabicyclo[3.1.0]hexane-3-carboxamide] |  |  | IC50 (Human complement C1s enzyme 1.16 nM, substrate Z-L-Lys-SBzl, assay of Example 3): < 100 nM |
| C[C@@H](NC(=O)[C@@H]1CC2(CN1C(=O)Cc1ccc(-c3ccc(F)cc3F)cc1)OCCO2)c1cc(C(=N)N)cs1 [Compound 321, (S)—N—((R)-1-(4-carbamimidoylthiophen-2-yl)ethyl)-7-(2-(2′,4′-difluoro-[1,1′-biphenyl]-4-yl)acetyl)-1,4-dioxa-7-azaspiro[4.4]nonane-8-carboxamide] | < 100 nM |  |  |
| C[C@@H](NC(=O)[C@@H]1C[C@@H](OC(F)F)CN1C(=O)CNC(=O)c1ccc(Oc2ccc(F)cc2)cc1)c1ccc(C(=N)N)s1 [Compound 57, (2S,4R)—N—((R)-1-(5-carbamimidoylthiophen-2-yl)ethyl)-4-(difluoromethoxy)-1-((4-(4-fluorophenoxy)benzoyl)glycyl)pyrrolidine-2-carboxamide] |  | < 100 nM |  |
| C[C@@H](NC(=O)[C@@H]1CC2(CN1C(=O)CNC(=O)c1ccc3c(c1)-c1ccccc1C3OC(F)F)OCCO2)c1cc(C(=N)N)cs1 (some centres unmarked) [Compound 204] | < 100 nM |  |  |
| C[C@@H](NC(=O)[C@@H]1CC2(CN1C(=O)CNC(=O)c1ccc3c(c1)-c1ccccc1C3(F)F)OCCO2)c1cc(-c2ncc[nH]2)cs1 [Compound 87, (S)—N—((R)-1-(4-(1H-imidazol-2-yl)thiophen-2-yl)ethyl)-7-((9,9-difluoro-9H-fluorene-3-carbonyl)glycyl)-1,4-dioxa-7-azaspiro[4.4]nonane-8-carboxamide] |  | < 100 nM |  |
| CC1c2ccccc2-c2ccc(C(=O)NCC(=O)N3C[C@H](S(C)(=O)=O)C[C@H]3C(=O)N[C@H](C)c3cc(C(=N)N)cs3)cc21 (stereo partly drawn) [Compound 390, (2S,4R)—N—((R)-1-(4-carbamimidoylthiophen-2-yl)ethyl)-1-((9-methyl-9H-fluorene-2-carbonyl)glycyl)-4-(methylsulfonyl)pyrrolidine-2-carboxamide] | < 100 nM |  |  |
| Cc1ccc(-c2ccc(C(=O)NCC(=O)N3CC4(C[C@H]3C(=O)N[C@H](C)c3cc(C(=N)N)cs3)OCCO4)cc2)c(C)c1 [Compound 169, (S)—N—((R)-1-(4-carbamimidoylthiophen-2-yl)ethyl)-7-((2′,4′-dimethyl-[1,1′-biphenyl]-4-carbonyl)glycyl)-1,4-dioxa-7-azaspiro[4.4]nonane-8-carboxamide] |  | < 100 nM |  |
| C[C@@H](NC(=O)[C@@H]1CC2(CN1C(=O)CNC(=O)c1ccc3c(c1)-c1ccccc1C3(F)F)OCCO2)c1cc(C(=N)NO)cs1 [Compound 128, (S)-7-((9,9-difluoro-9H-fluorene-3-carbonyl)glycyl)-N—((R)-1-(4-(N-hydroxycarbamimidoyl)thiophen-2-yl)ethyl)-1,4-dioxa-7-azaspiro[4.4]nonane-8-carboxamide] |  | < 100 nM |  |
| C[C@@H](NC(=O)[C@@H]1CC2(CN1C(=O)CNC(=O)c1ccc(-c3ccc(F)cc3)cn1)OCCO2)c1cc(C(=N)N)cs1 [Compound 163, (S)—N—((R)-1-(4-carbamimidoylthiophen-2-yl)ethyl)-7-((5-(4-fluorophenyl)picolinoyl)glycyl)-1,4-dioxa-7-azaspiro[4.4]nonane-8-carboxamide] |  | < 100 nM |  |
